Tests used:
[1] = test system: pregnancy in rats; assay: Early abortive action in rats after subcutaneous administration from the 5th to 7th day of pregnancy; assay type: in vivo, rat; settings: s.c., day 5-7 of pregnancy; for Complete Inhibition of Pregnancy (empty uteri) N#/N: nonpregnant females/paired females
Source text: (§1) The methods for the in-vitro tests and the in-vivo tests with the compounds according to the invention can be found in EP 0 411 733 A2 and DE 43 32 283 A1: […]

[2] = test system: Glucocorticoid Receptor; assay: Receptor bond: relative molar binding affinity to the glucocorticoid receptor; settings: Dexamethasone = 100%
[3] = test system: Progesterone Receptor; assay: Receptor bond: relative molar binding affinity to the progesterone receptor; settings: Progesterone = 100%
Source text: as §1

[4] = test system: tumor models; settings: in vivo; cited from earlier work
[5] = cited from earlier work

| Molecule | Complete Inhibition of Pregnancy (empty uteri) ([1]; 0.3 mg/animal/day) | Complete Inhibition of Pregnancy (empty uteri) N#/N ([1]; 0.3 mg/animal/day) | Complete Inhibition of Pregnancy (empty uteri) ([1]; 1 mg/animal/day) | Complete Inhibition of Pregnancy (empty uteri) N#/N ([1]; 1 mg/animal/day) | Relative Molar Binding-affinity RBA (%) to the Glucocorticoid Receptor [2] [%] | Relative Molar Binding-affinity RBA (%) to the Progesterone Receptor [3] [%] | further results |
| --- | --- | --- | --- | --- | --- | --- | --- |
| 4-[17β-Hydroxy-17α-(1,1,1-trifluoroethyloxymethyl)-3-oxoestra-4,9-dien-11β-yl]-benzaldehyde-(1E)-oxime [Example 6] | 100 | 4/4 | 100 | 4/4 |  |  | Complete Inhibition of Pregnancy (empty uteri) ([1]; 0.1 mg/animal/day): 0; Complete Inhibition of Pregnancy (empty uteri) N#/N ([1]; 0.1 mg/animal/day): 0/4 |
| CC12CC(c3ccc(C=NO)cc3)C3=C4CCC(=O)C=C4CCC3C1CCC2(O)C(F)(F)F (stereo not drawn) [Compound No. 2, 4-[17β-Hydroxy-17α-(1,1,1-trifluoromethyl)-3-oxoestra-4,9-dien-11β-yl]benzaldehyde-1(Z)-oxime] |  |  |  |  | 113 | 123 |  |
| CC12CC(c3ccc(C=NO)cc3)C3=C4CCC(=O)C=C4CCC3C1CCC2(O)C(F)(F)F (stereo not drawn) [Example 1, 4-[17β-Hydroxy-17α-(trifluoromethyl)-3-oxoestra-4,9-dien-11β-yl]benzaldehyde-(1E)-oxime] | 100 | 4/4 | 100 | 4/4 | 163 | 272 | Complete Inhibition of Pregnancy (empty uteri) ([1]; 0.03 mg/animal/day): 0; Complete Inhibition of Pregnancy (empty uteri) N#/N ([1]; 0.03 mg/animal/day): 0/6; Complete Inhibition of Pregnancy (empty uteri) ([1]; 0.1 mg/animal/day): 75; Complete Inhibition of Pregnancy (empty uteri) N#/N ([1]; 0.1 mg/animal/day): 1/4 |
| CC12CC(c3ccc(C=NO)cc3)C3=C4CCC(=O)C=C4CCC3C1CCC2(O)C(F)(F)C(F)(F)F (stereo not drawn) [Example 2, 4-[17β-Hydroxy-17α-(1,1,2,2,2-pentafluoroethyl)-3-oxoestra-4,9-dien-11β-yl]-benzaldehyde-(1E)-oxime] |  |  | 100 | 5/5 | 10 | 23 |  |
| CCNC(=O)ON=Cc1ccc(C2CC3(C)C(CCC3(O)C(F)(F)C(F)(F)F)C3CCC4=CC(=O)CCC4=C23)cc1 (stereo not drawn) [Example 3, 4-[17β-Hydroxy-17α-(1,1,2,2,2-pentafluoroethyl)-3-oxoestra-4,9-dien-11β-yl]-benzaldehyd-1-one-(1E)-{O-(ethylamino)carbonyl-oxime] |  |  | 100 | 4/4 | 84 | 230 |  |
| COC1(C(F)(F)C(F)(F)F)CCC2C3CCC4=CC(=O)CCC4=C3C(c3ccc(C=NO)cc3)CC21C (stereo not drawn) [Example 4, 4-[17β-Methoxy-17α-(1,1,2,2,2-pentafluoroethyl)-3-oxoestra-4,9-dien-11β-yl]-benzaldehyde-(1E)-oxime] |  |  | 50 | 2/4 |  |  |  |
| CN(C)c1ccc([C@H]2C[C@]3(C)[C@@H](CC[C@]3(O)CCCO)[C@@H]3CCC4=CC(=O)CCC4=C32)cc1 [Onapristone, reference compound] |  |  |  |  | 39 | 22 |  |
| CC#C[C@]1(O)CC[C@H]2[C@@H]3CCC4=CC(=O)CCC4=C3[C@@H](c3ccc(N(C)C)cc3)C[C@@]21C [RU 486, 11β-(4-Dimethylaminophenyl)-17β-hydroxy-17α-propinyl-estra-4,9-dien-3-one, reference compound] | 0 | 0/5 | 20 | 1/5 |  |  | Complete Inhibition of Pregnancy (empty uteri) ([1]; 3 mg/animal/day): 100; Complete Inhibition of Pregnancy (empty uteri) N#/N ([1]; 3 mg/animal/day): 5/5 |
| CC(=O)c1ccc([C@H]2C[C@@]3(C)[C@@H](CC[C@@]3(O)C(F)(F)C(F)(F)F)[C@@H]3CCC4=CC(=O)CCC4=C32)cc1 [ZK 230 211, 11β-(4-Acetylphenyl)-17β-hydroxy-17α-(1,1,2,2,2-pentafluoroethyl)-estra-4,9-dien-3-one, reference compound] | 0 | 0/6 | 75 | 3/4 |  |  | Antiproliferative activity in the tumor models (in words) [4]: antiproliferative activity; Complete Inhibition of Pregnancy (empty uteri) ([1]; 3 mg/animal/day): 100; Complete Inhibition of Pregnancy (empty uteri) N#/N ([1]; 3 mg/animal/day): 4/4; Receptor selectivity (in words) [5]: high receptor selectivity |
| CCNC(=O)ON=Cc1ccc(C2CC3(C)C(CCC3(O)C(F)(F)F)C3CCC4=CC(=O)CCC4=C23)cc1 (stereo not drawn) [compound 3, 4-[17β-Hydroxy-17α-(1,1,1-trifluoromethyl)-3-oxoestra-4,9-dien-11β-yl]benzaldehyde-1(E)-[O-(ethylamino)carbonyl]oxime] |  |  |  |  | 187 | 98 |  |
| CC(=O)ON=Cc1ccc(C2CC3(C)C(CCC3(O)C(F)(F)C(F)(F)F)C3CCC4=CC(=O)CCC4=C23)cc1 (stereo not drawn) [compound 5, 4-[17β-Hydroxy-17α-(1,1,2,2,2-pentafluoroethyl)-3-oxoestra-4,9-dien-11β-yl]benzaldehyde-1(E)-O-acetyloxime] |  |  |  |  | 10 | 0.5 |  |
